The values that follow are results of earlier work, collected in PMC4108727 (Angewandte Chemie (International ed. in English), 2013).

The data set addresses MTH1 (Homo sapiens, UniProt P36639). Particulars: substrate of MTH1; cited from earlier work.

Take `Nc1ncnc2c1[nH]c(=O)n2[C@H]1C[C@H](O)[C@@H](COP(=O)(O)OP(=O)(O)OP(=O)(O)O)O1` [8-oxo-dATP]: the Michaelis constant (Km) is 13.9 µM.

As to `Nc1nc2c([nH]c(=O)n2[C@H]2C[C@H](O)[C@@H](COP(=O)(O)OP(=O)(O)OP(=O)(O)O)O2)c(=O)[nH]1` [8-oxo-dGTP], the Km is 15.2 µM.
